Experimental data as given in patent US9932346B2, “Pyrrolopyrimidines for use in influenza virus infection” (Janssen Sciences Ireland UC, priority 2014, dated 2018).

Columns and labels:
[1] = test system: influenza virus A/Taiwan/1/86 (H1N1); test: organism not typed; assay type: cell-based; details: MDCK cells infected with influenza A/Taiwan/1/86 (H1N1), three days post-virus exposure, CPE by ATP levels
[2] = in vitro; details: dog
[3] = test system: MDCK cells; details: dog, 3 days

Compound: N#Cc1cc(F)c(N[C@H]2C3CCC(CC3)[C@@H]2C(=O)O)nc1-c1c[nH]c2ncncc12 [Compound 101]
- IC50 ([1]; MDCK, 72 h): 36 nM
- CC50 at 3 days [2]: 10500 nM

Compound: O=C(N[C@H]1CCC[C@@H](Nc2nc(-c3c[nH]c4ncncc34)ncc2F)C1)c1ccccn1 (racemic) [Compound 35]
- IC50 ([1]; MDCK, 72 h): 2 nM
- CC50 at 3 days [2]: > 25000 nM

Compound: O=C(N[C@H]1CCC[C@@H](Nc2nc(-c3c[nH]c4ncncc34)ncc2F)C1)c1ccncc1 (racemic) [Compound 33]
- IC50 ([1]; MDCK, 72 h): 42 nM
- CC50 at 3 days [2]: > 100000 nM

Compound: CC[C@@]1(C(=O)O)CCCC[C@H]1Nc1nc(-c2c[nH]c3ncncc23)ncc1F [Compound 72]
- IC50 ([1]; MDCK, 72 h): 860 nM
- CC50 at 3 days [2]: 10300 nM

Compound: Cc1nc(C(=O)N[C@H]2CCC[C@@H](Nc3nc(-c4c[nH]c5ncncc45)ncc3F)C2)c(C)o1 (racemic) [Compound 36]
- IC50 ([1]; MDCK, 72 h): 40 nM
- CC50 at 3 days [2]: > 25000 nM

Compound: Fc1cnc(-c2c[nH]c3ncncc23)nc1NC1[C@H]2CC3C[C@H](C2)C[C@H]1C3 (stereo partly drawn) [Compound 57]
- IC50 ([1]; MDCK, 72 h): 660 nM
- CC50 at 3 days [2]: 5200 nM

Compound: COC(=O)[C@H]1C2CCC(CC2)[C@@H]1Nc1nc(-c2c[nH]c3ncncc23)ncc1F [Compound 24]
- IC50 ([1]; MDCK, 72 h): 325 nM
- CC50 at 3 days [2]: > 25000 nM

Compound: Cc1cc(C(=O)N[C@H]2CCC[C@@H](Nc3nc(-c4c[nH]c5ncncc45)ncc3F)C2)on1 (racemic) [Compound 32]
- IC50 ([1]; MDCK, 72 h): 35 nM
- CC50 at 3 days [2]: > 25000 nM

Compound: Cc1ncc2c(-c3ncc(F)c(N[C@@H]4CCC[C@H](NC(=O)N5CCCC5)C4)n3)c[nH]c2n1 [Compound 92]
- IC50 ([1]; MDCK, 72 h): 180 nM
- CC50 at 3 days [2]: > 25000 nM

Compound: Cn1cnc(C(=O)N[C@H]2CCC[C@@H](Nc3nc(-c4c[nH]c5ncncc45)ncc3F)C2)c1 [Compound 48]
- CC50 [3]: > 25000 nM
- IC50 [1]: 35 nM

Compound: O=C(N[C@H]1CCC[C@@H](Nc2nc(-c3c[nH]c4ncncc34)cnc2F)C1)N1CCCC1 [Compound 46]
- IC50 ([1]; MDCK, 72 h): 5 nM
- CC50 at 3 days [2]: > 25000 nM

Compound: Cc1cc(C(=O)N[C@@H]2CCC[C@@H](Nc3nc(-c4c[nH]c5ncncc45)ncc3F)C2)no1 (racemic) [Compound 34]
- IC50 ([1]; MDCK, 72 h): 40 nM
- CC50 at 3 days [2]: > 25000 nM

Compound: O[C@H]1CCCC[C@@H]1Nc1nc(-c2c[nH]c3ncncc23)ncc1F (racemic) [Compound 58]
- IC50 ([1]; MDCK, 72 h): 630 nM
- CC50 at 3 days [2]: > 100000 nM

Compound: Nc1ncnc2[nH]cc(-c3ncc(F)c(N[C@@H]4CCC[C@H](C(=O)N5CCCC5)C4)n3)c12 [Compound 79]
- IC50 ([1]; MDCK, 72 h): 150 nM
- CC50 at 3 days [2]: > 25000 nM

Compound: O=C(N[C@H]1CCC[C@@H](Nc2nc(-c3c[nH]c4ncncc34)ncc2F)C1)C1CCCCO1 (mixture of isomers) [Compound 38]
- IC50 ([1]; MDCK, 72 h): 380 nM
- CC50 at 3 days [2]: > 25000 nM

Compound: Cc1cc(C(=O)N[C@H]2CCC[C@@H](Nc3nc(-c4c[nH]c5ncncc45)ncc3F)C2)nn1C (racemic) [Compound 30]
- IC50 ([1]; MDCK, 72 h): 21 nM
- CC50 at 3 days [2]: > 25000 nM

Compound: N#Cc1cc(F)c(N[C@@H]2CCC[C@H](NC(=O)c3ccccn3)C2)nc1-c1c[nH]c2ncncc12 [Compound 98]
- IC50 ([1]; MDCK, 72 h): 2 nM
- CC50 at 3 days [2]: > 25000 nM

Compound: O=C(N[C@H]1CCC[C@@H](Nc2nc(C3CNc4ncncc43)ncc2F)C1)OCc1ccccc1 (stereo partly drawn) [Compound 28]
- IC50 ([1]; MDCK, 72 h): 351 nM
- CC50 at 3 days [2]: > 25000 nM

Compound: Cn1cnc(C(=O)N[C@@H]2CCC[C@@H](Nc3nc(-c4c[nH]c5ncncc45)c(C#N)cc3F)C2)c1 [Compound 12]
- IC50 ([1]; MDCK, 72 h): 30 nM
- CC50 at 3 days [2]: > 25000 nM

Compound: CC(C)(C)C(CC(=O)O)Nc1nc(-c2c[nH]c3ncncc23)c(C#N)cc1F (stereo not drawn) [Compound 21]
- IC50 ([1]; MDCK, 72 h): 106 nM
- CC50 at 3 days [2]: 13400 nM

Compound: O=C(Nc1ccccc1)N[C@H]1CCC[C@@H](Nc2nc(-c3c[nH]c4ncncc34)ncc2F)C1 (racemic) [Compound 31]
- IC50 ([1]; MDCK, 72 h): 21 nM
- CC50 at 3 days [2]: > 25000 nM

Compound: O=C(O)[C@H]1C2CCC(CC2)[C@@H]1Nc1nc(-c2c[nH]c3ncncc23)c(C(F)(F)F)cc1F [Compound 44]
- IC50 ([1]; MDCK, 72 h): 3 nM
- CC50 at 3 days [2]: 9400 nM

Compound: Cn1cnc(C(=O)N[C@H]2CCC[C@@H](Nc3nc(-c4c[nH]c5ncncc45)ncc3F)C2)c1 [Compound 14]
- IC50 ([1]; MDCK, 72 h): 47 nM
- CC50 at 3 days [2]: > 25000 nM

Compound: CC1(C(CC(=O)O)Nc2nc(-c3c[nH]c4ncncc34)ncc2F)CCCC1 (stereo not drawn) [Compound 53]
- IC50 ([1]; MDCK, 72 h): 650 nM
- CC50 at 3 days [2]: > 25000 nM

Compound: Cn1cccc1C(=O)N[C@H]1CCC[C@@H](Nc2nc(-c3c[nH]c4ncncc34)ncc2F)C1 (racemic) [Compound 45]
- IC50 ([1]; MDCK, 72 h): 4 nM
- CC50 at 3 days [2]: > 25000 nM

Compound: CC(C)Nc1nc(-c2c[nH]c3ncncc23)ncc1F [Compound 61]
- IC50 ([1]; MDCK, 72 h): 630 nM
- CC50 at 3 days [2]: > 25000 nM

Compound: Cc1[nH]c2ncncc2c1-c1ncc(F)c(N[C@@H]2CCC[C@H](NC(=O)N3CCCC3)C2)n1 [Compound 83]
- IC50 ([1]; MDCK, 72 h): 710 nM
- CC50 at 3 days [2]: > 25000 nM

Compound: CC(C)NC(=O)N[C@H]1CCC[C@@H](Nc2nc(-c3c[nH]c4ncncc34)ncc2F)C1 (racemic) [Compound 41]
- IC50 ([1]; MDCK, 72 h): 319 nM
- CC50 at 3 days [2]: > 25000 nM

Compound: CC(C)(C)C(CC(=O)O)Nc1nc(-c2c[nH]c3ncncc23)c(C(F)(F)F)cc1F (stereo not drawn) [Compound 18]
- IC50 ([1]; MDCK, 72 h): 44 nM
- CC50 at 3 days [2]: 2480 nM

Compound: CC(C)C(=O)N[C@H]1CCC[C@@H](Nc2nc(-c3c[nH]c4ncncc34)ncc2F)C1 (racemic) [Compound 73]
- IC50 ([1]; MDCK, 72 h): 930 nM
- CC50 at 3 days [2]: > 25000 nM

Compound: O=C(O)[C@H]1C2CCC(CC2)[C@@H]1Nc1nc(-c2c[nH]c3ncncc23)ncc1F (mixture of isomers) [Compound 54]
- IC50 ([1]; MDCK, 72 h): 460 nM
- CC50 at 3 days [2]: > 25000 nM

Compound: O=C(N[C@H]1CCC[C@@H](Nc2nc(-c3c[nH]c4ncncc34)ncc2F)C1)c1cccnc1 (racemic) [Compound 49]
- IC50 ([1]; MDCK, 72 h): 46 nM
- CC50 at 3 days [2]: > 25000 nM

Compound: COC(=O)CC(Nc1nc(-c2c[nH]c3ncncc23)ncc1F)C(C)(C)C (stereo not drawn) [Compound 69]
- IC50 ([1]; MDCK, 72 h): 830 nM
- CC50 at 3 days [2]: > 25000 nM

Compound: O=C(N[C@H]1CCC[C@@H](Nc2nc(-c3c[nH]c4ncncc34)ncc2F)C1)c1ccno1 (racemic) [Compound 47]
- IC50 ([1]; MDCK, 72 h): 11 nM
- CC50 at 3 days [2]: > 25000 nM

Compound: O=C(N[C@H]1CCC[C@@H](Nc2nc(-c3c[nH]c4ncncc34)ncc2F)C1)C1CCC1 (racemic) [Compound 37]
- IC50 ([1]; MDCK, 72 h): 205 nM
- CC50 at 3 days [2]: > 25000 nM

Compound: Cc1noc(C)c1C(=O)N[C@H]1CCC[C@@H](Nc2nc(-c3c[nH]c4ncncc34)ncc2F)C1 (racemic) [Compound 40]
- IC50 ([1]; MDCK, 72 h): 190 nM
- CC50 at 3 days [2]: > 25000 nM

Compound: O=C(N[C@H]1CCC[C@@H](Nc2nc(-c3c[nH]c4ncncc34)ncc2F)C1)C1CC1 (racemic) [Compound 39]
- IC50 ([1]; MDCK, 72 h): 114 nM
- CC50 at 3 days [2]: > 25000 nM

Compound: COCC(=O)N[C@H]1CCC[C@@H](Nc2nc(-c3c[nH]c4ncncc34)ncc2F)C1 (racemic) [Compound 66]
- IC50 ([1]; MDCK, 72 h): 820 nM
- CC50 at 3 days [2]: > 25000 nM

Compound: Fc1cnc(-c2c[nH]c3ncncc23)nc1NC1CCCCC1 [Compound 65]
- IC50 ([1]; MDCK, 72 h): 810 nM
- CC50 at 3 days [2]: 11600 nM

Compound: N#Cc1cc(F)c(N[C@H]2CCC[C@@H](NC(=O)N3CCCC3)C2)nc1-c1c[nH]c2ncncc12 (stereo in doubt) [Compound 93]
- IC50 ([1]; MDCK, 72 h): 6 nM
- CC50 at 3 days [2]: > 25000 nM

Compound: CC(C)(C)C(=O)N[C@H]1CCC[C@@H](Nc2nc(-c3c[nH]c4ncncc34)ncc2F)C1 (racemic) [Compound 64]
- IC50 ([1]; MDCK, 72 h): 760 nM
- CC50 at 3 days [2]: > 25000 nM

Compound: N#Cc1cc(F)c(N[C@@H]2CCC[C@H](NC(=O)N3CCCC3)C2)nc1-c1c[nH]c2ncncc12 (stereo in doubt) [Compound 9, (+/−)-N-((cis)-3-((5-cyano-3-fluoro-6-(7H-pyrrolo[2,3-d]pyrimidin-5-yl)pyridin-2-yl)amino)cyclohexyl)pyrrolidine-1-carboxamide]
- IC50 ([1]; MDCK, 72 h): 9 nM
- CC50 at 3 days [2]: 8740 nM

Compound: O=C(O)c1ccccc1C(=O)N[C@H]1CCC[C@@H](Nc2nc(-c3c[nH]c4ncncc34)ncc2F)C1 (racemic) [Compound 63]
- IC50 ([1]; MDCK, 72 h): 720 nM
- CC50 at 3 days [2]: > 25000 nM

Compound: CCC(=O)N[C@H]1CCC[C@@H](Nc2nc(-c3c[nH]c4ncncc34)ncc2F)C1 (racemic) [Compound 62]
- IC50 ([1]; MDCK, 72 h): 700 nM
- CC50 at 3 days [2]: > 25000 nM

Compound: O=C(N[C@H]1CCC[C@@H](Nc2nc(-c3c[nH]c4ncncc34)c(F)cc2F)C1)N1CCCC1 [Compound 23]
- IC50 ([1]; MDCK, 72 h): 33 nM
- CC50 at 3 days [2]: > 25000 nM

Compound: Cc1ncnc2[nH]cc(-c3ncc(F)c(N[C@@H]4CCC[C@H](NC(=O)N5CCCC5)C4)n3)c12 [Compound 87]
- IC50 ([1]; MDCK, 72 h): 470 nM
- CC50 at 3 days [2]: > 25000 nM

Compound: CC(C)(C)[C@@H](CO)Nc1nc(-c2c[nH]c3ncncc23)ncc1F (racemic) [Compound 55]
- IC50 ([1]; MDCK, 72 h): 550 nM
- CC50 at 3 days [2]: > 25000 nM

Compound: O=C(N[C@H]1CCC[C@@H](Nc2nc(-c3c[nH]c4ncncc34)ncc2F)C1)N1CCCC1 (racemic) [Compound 7]
- IC50 ([1]; MDCK, 72 h): 5 nM
- CC50 at 3 days [2]: > 25000 nM

Compound: COC(=O)N[C@H]1CCC[C@@H](Nc2nc(-c3c[nH]c4ncncc34)ncc2F)C1 (racemic) [Compound 56]
- IC50 ([1]; MDCK, 72 h): 600 nM
- CC50 at 3 days [2]: > 25000 nM

Compound: Cn1cnc(C(=O)N[C@H]2CCC[C@@H](Nc3nc(-c4c[nH]c5ncncc45)c(F)cc3F)C2)c1 [Compound 16]
- IC50 ([1]; MDCK, 72 h): 36 nM
- CC50 at 3 days [2]: > 25000 nM

Compound: O=C(N[C@H]1CCC[C@@H](Nc2nc(-c3c[nH]c4ncncc34)ncc2F)C1)c1ccn2nccc2n1 (racemic) [Compound 29]
- IC50 ([1]; MDCK, 72 h): 10 nM
- CC50 at 3 days [2]: > 25000 nM
